The NIST ThermoML archive (doi:10.1016/j.jct.2005.09.003)

Test: xn = mol fraction of the nth substance listed
Conditions: Liquid, x1 = 1

CCCCCCCC [octane] + CCCCCCCl
mass density [kg/m3]
Conditions	298.15 K	308.15 K	318.15 K	328.15 K
100 kPa	698.64	690.43	682.47	674.53
2130 kPa	700.14	692.18	684.48	676.49
4150 kPa	701.87	694	686.45	678.56
6180 kPa	703.56	695.79	688.29	680.59
8210 kPa	705.17	697.53	690.17	682.57
10230 kPa	706.78	699.24	691.97	684.51
11250 kPa	707.58	700.07	692.85	685.44
12260 kPa	708.37	700.88	693.77	686.38
14290 kPa	709.9	702.55	695.49	688.23
16310 kPa	711.41	704.13	697.2	690.03
18340 kPa	712.9	705.71	698.86	691.76
20370 kPa	714.36	707.23	700.47	693.5
22390 kPa	715.78	708.76	702.07	695.17
24420 kPa	717.18	710.22	703.61	696.82
26450 kPa	718.56	711.66	705.13	698.41
28470 kPa	719.9	713.09	706.66	699.98
29490 kPa	720.57	713.77	707.38	700.75
30500 kPa	721.22	714.47	708.13	701.53
32530 kPa	722.53	715.84	709.54	703.01
34550 kPa	723.82	717.18	710.96	704.5
36580 kPa	725.06	718.5	712.33	705.96
38600 kPa	726.32	719.82	713.68	707.36
39620 kPa	726.94	720.45	714.38	708.06
